Earlier results as cited in patent US20200138880A1, “BACTERIA-BASED GEL COMPOSITIONS FOR TOPICAL APPLICATIONS AND USES THEREOF” (PROBIOTICAL S.P.A., priority 2016, published 2020).

Conditions: well known; free melatonin not bound to globulins

melatonin concentration in saliva as share of its plasma levels: 24%-33%
SMILES: COc1ccc2[nH]cc(CCNC(C)=O)c2c1 [melatonin]
